One block for each compound: values may come before it. Non-standard residues stand in square brackets, D forms with d. Primed or numbered codes have the meaning given here. No end group written: not given here. *: point of attachment. Benzenesulfonyl(4-tBu) = CC(C)(C)c1ccc(S(=O)(=O)*)cc1; dPip′ = not defined here
Legend:
CaCdc42 (R150K) = target: T1, CaCdc42 (R150K) (Candida albicans, UniProt P0CY33, R150K); assay: Fluorescence titration of sNBD-labeled, GMPPCP-loaded CaCdc42 (R150K) with CRIB peptides; assay type: binding
T1 construct: made in house; host or cells: E. coli BL21
T1 sequence (P0CY33 1-178 R150K): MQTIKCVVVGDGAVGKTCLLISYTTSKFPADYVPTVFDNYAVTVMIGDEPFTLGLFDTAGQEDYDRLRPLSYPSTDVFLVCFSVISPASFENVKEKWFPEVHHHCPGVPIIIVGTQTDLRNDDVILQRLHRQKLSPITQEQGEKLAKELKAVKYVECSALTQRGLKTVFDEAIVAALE
Description: In order to construct a bivalent peptide ligand for Candida Cdc42 (CaCdc42) (with a suitable linker) (FIG. 12), the binding affinities of component peptides derived from the CRIB domains of Candida Cla4 and Step 20 were determined. Residue K150 of the R150K CaCdc42 mutant was covalently modified with the fluorescent probe, sNBD (Molecular Probes, Eugene, Oreg.), essentially as described by Nomanbhoy and Cerione (Nomanbhoy, T. and Cerione, R. A., 1999, 15878-15884.). The stoichiometry of the fluorescent probe per protein molecule was estimated at 1.13, based on protein concentration determined with ε280nm=13,610 M^−1 cm^−1 (Gill, S. C. and von Hippel, P. H., 1989, 319-326), and using the absorbance of the sNBD moiety of ε463nm=22,000 M^−1 cm^−1. Interaction of the CRIB peptides with sNBD-labeled CaCdc42 was monitored using extrinsic fluorescence measurements with a Hitachi F-2500 fluorescence spectrophotometer. Samples of sNBD-labeled, activated CaCdc42 were added in the assay buffer (50 mM phosphate, pH 6.8, 50 mM NaCl and 5 mM MgCl2) to a cuvette being continuously stirred. The protein concentration was 1 μM. Individual CRIB peptide dissolved in the same assay buffer was added drop-wise to the cuvette. The mixture was excited at 488 nm with an excitation slit width of 5 nm. The emission spectra were scanned from 510 nm to 590 nm. The fluorescence emission intensity at the emission maximum 545 nm was determined from each spectrum and the final value was obtained by averaging the values from five scans of the same sample. […]
The Kd values for the binding of the CRIB peptides to sNBD-labeled activated CaCdc42 were determined by fitting the fluorescence titration data to a simple bimolecular association model as described by Leonard et al (Leonard, D. A., and others, 1997, 1173-1180). […]
[formula] The fluorescence intensity (F) is related to the dissociation constant, Kd as follows,
[formula] where F0 and Ft are the fluorescence intensities at the starting and end points of the titration, respectively. […] Average Kd values were determined from multiple independent measurements.

[1] = Calcium binding followed by proton NMR; settings: CaCl2 titration, pH 5.5
Description: Looking at the results in FIG. 6, panels a, b, c, d show changes in the proton NMR spectra of Ac-[…]NH2 (SEQ. ID. NO. 109) (P3230, panels a, b) and Ac-[…]NH2 (SEQ. ID. NO. 110) (P3231, panels c, d) upon the addition to the initial ˜450 μL of the corresponding peptide in 20 mM sodium acetate-d3 buffer, pH 5.5, containing 10% D2O, of 1 μL (final CaCl2 concentration ˜0.22 mM), additional 2 μL (final CaCl2 concentration ˜0.66 mM), additional 10 μL (final CaCl2 concentration ˜2.8 mM) of 100 mM CaCl2, and additional 10 μL (final CaCl2 concentration ˜23.9 mM) of 1 M CaCl2. Panels e and f show changes in the proton NMR spectrum of a disulfide-linked peptide Bbs-Arg-(D-Pip)-Gly-Cys . . . […](SEQ. ID. No. 16) upon the addition to the initial volume of ˜450 μL of 1 μL (final CaCl2 concentration ˜0.22 mM), additional 2 μL (final CaCl2 concentration ˜0.66 mM) of 100 mM CaCl2, and additional 10 μL (final CaCl2 concentration ˜22.2 mM) of 1 M CaCl2.
An inhibitor with a linker known to bind specific metal ions will be affected by the presence of these ions in solution. Two peptides homologous to the calcium-binding loop of troponin C were designed and established that they bind calcium ions in solution. The peptides have the following sequences—Ac-[…]NH2 (P3230) (SEQ. ID. NO. 109) and Ac-[…]NH2 (P3231) (SEQ. ID. NO. 110). The peptides were synthesized, purified and their identity was confirmed as described in Example 1. They were tested for calcium binding by use of NMR. For this both freeze-dried peptides were reconstituted at a concentration of approximately 0.5 mM in 20 mM sodium acetate-d3 buffer, pH 5.5, containing 10% D2O. Proton spectra of the peptides were recorded at 800 MHz, 15° C., before and after addition of increasing amounts of 0.1 and 1 M stock solutions of CaCl2 in the same buffer. FIGS. 6a,b,c,d show changes in the proton NMR spectra of these two peptides upon the addition to the initial volume of ˜450 μL of 1 μL (final CaCl2 concentration ˜0.22 mM), additional 2 μL (final CaCl2 concentration ˜0.66 mM), additional 10 μL (final CaCl2 concentration ˜2.8 mM) of 100 mM CaCl2, and additional 10 μL (final CaCl2 concentration ˜23.9 mM) of 1 M CaCl2. The changes in the spectra confirm binding of calcium with affinity in mM range.
One of the two designed peptides was used to construct a calcium-responsive bivalent thrombin inhibitor. The disulfide-linked bivalent thrombin inhibitor (corresponding to SEQ. ID. NO. 91) prepared by cross-oxidation of cysteine thiol groups from two peptides Bbs-Arg-(D-Pip)-Gly-Cys (SEQ. ID. NO. 4) and […](SEQ. ID. NO. 114) (preparation described in Example 1) was tested for its ability to bind calcium and inhibit amidolytic reaction in the presence and absence of calcium. […]

α-thrombin = α-thrombin (Homo sapiens, UniProt P00734); assay: Effect of calcium on inhibition of the amidolytic activity of thrombin (S-3266); assay type: biochemical; parameters: chromogenic substrate proteolysis by human α-thrombin; settings: 50 and 100 mM calcium, 0.6 nM thrombin, 25° C.
thrombin [2] = target: T2, thrombin (Homo sapiens, UniProt P00734); settings: monovalent moiety alone; cited from earlier work
thrombin [3] = target: T2, thrombin; assay: Fibrinogen clotting assay catalyzed by thrombin; assay type: biochemical; settings: IC50, nM (37° C.), 37° C.; concentration needed to double the clotting time
thrombin [4] = target: T2, thrombin; assay: Kinetic amidolytic assay with chromogenic substrate S-2238 (inhibition constants); assay type: biochemical; settings: 25° C., S-2238, clotting buffer; read-out: KI, nM (25° C.)
Description: Peptides were freeze-dried and their identity was confirmed by ion-spray mass spectrometry. Clotting assays were carried out by use of the protocols described previously (DiMaio and others, 1990, 21698-21703; Witting and others, 1992, 737-743). The assay employs bovine plasma fibrinogen dissolved at 0.1% in 50 mM Tris-Cl, 100 mM NaCl, 0.1% PEG-8000 at pH 7.6 (i.e. the clotting buffer). Each assay mixture contained a certain concentration of the peptide, and the reaction was started by the addition of human thrombin to a final concentration of 0.6-1.2 nM. Optical absorbance increase at 420 nm caused by fibrin clot formation was measured at 25° C. or 37° C. using the Spectramax plate reader. The onset clotting time was determined as an intersection of the baseline and the extrapolated linear portion of the OD change curve. The concentration of a peptide needed to double the clotting time was defined as IC50 (DiMaio and others, 1990, 21698-21703). Kinetic amidolytic curves were obtained in clotting buffer at 25° C. using eight inhibitor concentrations and three to five concentrations of the chromogenic substrate S-2238 (Chromogenix) (DiMaio and others, 1990, 21698-21703). Inhibition constants were extracted from Lineweaver-Burk equation by using weighted linear regression. Errors in Ki determination were estimated by using Monte-Carlo sampling with 1-3% variance of the experimental points. Peptide concentrations were determined spectrophotometrically using predicted extinction coefficients at 278 nm (Gill and von Hippel, 1989, 319-326).

Compound: EVNIKISTPFNAKHLAHVGIDDNGSYTGLPIEWERLLSASGIT [eCst20]
Kd (CaCdc42 (R150K)): 46 nM

Affinity of calcium binding [1]: mM range
Effect of calcium on inhibition potency (α-thrombin; listed as SEQ. ID. NO. 91): altered inhibition
Effect of calcium on inhibition potency (α-thrombin; listed as calcium-responsive disulfide-linked bivalent thrombin inhibitor): decreased
Compound: Bbs-Arg-(D-Pip)-Gly-Cys . . . Cys-Asp-Lys-Asn-Ala-Asp-Gly-Trp-Ile-Asp-Asn-Gly-Asp-Phe-Glu-Glu-Ile-Pro-Glu-Glu-Tyr-Leu-Gln (CDKNADGWIDNGDFEEIPEEYLQ; not fully specified (N-terminus); printed as Bbs-Arg-(D-Pip)-Gly-Cys . . . Cys-Asp-Lys-Asn-Ala-Asp-Gly-Trp-Ile-Asp-Asn-Gly-Asp-Phe-Glu-Glu-Ile-Pro-Glu-Glu-Tyr-Leu-Gln; also: N-terminal part Bbs-Arg-(D-Pip)-Gly-Cys . . . precedes Cys1, intervening residues not given here) [3243-3255]

Compound: EVNIKISTPFNAKHLAHVGIDDNGNFTGLPDTWKSLLQHSKIT [mCst20-cCla4]
Kd (CaCdc42 (R150K)): 2640 ± 200 nM

Affinity of calcium binding [1]: millimolar range
Compound: DKNADGWIDNGDFE [SEQ. ID. NO. 17]

Compound: Bbs-Arg-(D-Pip)-Gly ({Benzenesulfonyl(4-tBu)}-Arg-[dPip′]-Gly) [H1]
KI of the constituent binding moiety (thrombin [2]): low μM range

Affinity of calcium binding [1]: mM range
Compound: DKNADGWIDNGEFE [P3230]

Compound: GGNSGFPGPINFTHKVHVGFDRKSLTIYAQVQKNFTGLPDTWKSLLQHSKIT [eCla4-SLAM, GGNSGFPGPINFTHKVHVGFDRKSLTIYAQVQKNFTGLPDTWKSLLQHSKIT]
Kd (CaCdc42 (R150K)): 127 ± 70 nM

Compound: CC[C@H](C)[C@H](NC(=O)[C@H](CCC(=O)O)NC(=O)[C@H](CCC(=O)O)NC(=O)[C@H](Cc1ccccc1)NC(=O)[C@H](CC(=O)O)NC(=O)CNC(=O)[C@H](CO)NC(=O)CNC(=O)[C@H](CO)NC(=O)CNC(=O)[C@H](CO)NC(=O)CNC(=O)[C@H](CO)NC(=O)CNC(=O)[C@H]1CCCCN1C(=O)[C@H](CCCNC(=N)N)NS(=O)(=O)c1ccc(C(C)(C)C)cc1)C(=O)N1CCC[C@H]1C(=O)N[C@@H](CCC(=O)O)C(=O)N[C@@H](CCC(=O)O)C(=O)N[C@@H](Cc1ccc(O)cc1)C(=O)N[C@@H](CC(C)C)C(=O)N[C@@H](CCC(N)=O)C(=O)O [P3150]
IC50 (thrombin [3]): 0.5 ± 0.1 nM
Ki (thrombin [4]): 0.5 ± 0.2 nM
Effect of calcium on inhibition potency (α-thrombin): no visible effect

Affinity of calcium binding [1]: mM range
Compound: DKNADGWIDNGDFE [P3231]

Compound: CC[C@H](C)[C@H](NC(=O)[C@H](CCC(=O)O)NC(=O)[C@H](CCC(=O)O)NC(=O)[C@H](Cc1ccccc1)NC(=O)[C@H](CC(=O)O)NC(=O)CNC(=O)[C@H](CO)NC(=O)CNC(=O)[C@H](CO)NC(=O)CNC(=O)[C@H](CO)NC(=O)CNC(=O)[C@H](CO)NC(=O)CNC(=O)[C@H](CO)NC(=O)CNC(=O)[C@H](CO)NC(=O)CNC(=O)[C@H](CO)NC(=O)CNC(=O)[C@H](CO)NC(=O)CNC(=O)[C@H](CO)NC(=O)CNC(=O)[C@H](CO)NC(=O)CNC(=O)[C@H]1CCCCN1C(=O)[C@H](CCCNC(=N)N)NS(=O)(=O)c1ccc(C(C)(C)C)cc1)C(=O)N1CCC[C@H]1C(=O)N[C@@H](CCC(=O)O)C(=O)N[C@@H](CCC(=O)O)C(=O)N[C@@H](Cc1ccc(O)cc1)C(=O)N[C@@H](CC(C)C)C(=O)N[C@@H](CCC(N)=O)C(=O)O [P3153]
IC50 (thrombin [3]): 1 ± 0.1 nM
Ki (thrombin [4]): 2 ± 0.3 nM

Compound: CC[C@H](C)[C@H](NC(=O)[C@H](CCC(=O)O)NC(=O)[C@H](CCC(=O)O)NC(=O)[C@H](Cc1ccccc1)NC(=O)[C@H](CC(=O)O)NC(=O)CNC(=O)[C@H](CO)NC(=O)CNC(=O)[C@H](CO)NC(=O)CNC(=O)[C@H](CO)NC(=O)CNC(=O)[C@H](CO)NC(=O)CNC(=O)[C@H](CO)NC(=O)CNC(=O)[C@H](CO)NC(=O)CNC(=O)[C@H](CO)NC(=O)CNC(=O)[C@H](CO)NC(=O)CNC(=O)[C@H](CO)NC(=O)CNC(=O)[C@H](CO)NC(=O)CNC(=O)[C@H](CO)NC(=O)CNC(=O)[C@H](CO)NC(=O)CNC(=O)[C@H]1CCCCN1C(=O)[C@H](CCCNC(=N)N)NS(=O)(=O)c1ccc(C(C)(C)C)cc1)C(=O)N1CCC[C@H]1C(=O)N[C@@H](CCC(=O)O)C(=O)N[C@@H](CCC(=O)O)C(=O)N[C@@H](Cc1ccc(O)cc1)C(=O)N[C@@H](CC(C)C)C(=O)N[C@@H](CCC(N)=O)C(=O)O [P3160]
IC50 (thrombin [3]): 2.8 ± 0.1 nM
Ki (thrombin [4]): 4.6 ± 0.8 nM
